The results in this text go back to patent US7442710B2, “Substituted phenyl methanones” (Hoffman-La Roche Inc., priority 2005, dated 2008).

What is called IC50 is the concentration at which inhibition is half-maximal.

The test deals with T1, mGlyT-1b (Mus musculus, UniProt P28571).
T1 construct: host or cells: Flp-in-CHO cells, stably transfected
T1 sequence (P28571 1-651 isoform P28571-2): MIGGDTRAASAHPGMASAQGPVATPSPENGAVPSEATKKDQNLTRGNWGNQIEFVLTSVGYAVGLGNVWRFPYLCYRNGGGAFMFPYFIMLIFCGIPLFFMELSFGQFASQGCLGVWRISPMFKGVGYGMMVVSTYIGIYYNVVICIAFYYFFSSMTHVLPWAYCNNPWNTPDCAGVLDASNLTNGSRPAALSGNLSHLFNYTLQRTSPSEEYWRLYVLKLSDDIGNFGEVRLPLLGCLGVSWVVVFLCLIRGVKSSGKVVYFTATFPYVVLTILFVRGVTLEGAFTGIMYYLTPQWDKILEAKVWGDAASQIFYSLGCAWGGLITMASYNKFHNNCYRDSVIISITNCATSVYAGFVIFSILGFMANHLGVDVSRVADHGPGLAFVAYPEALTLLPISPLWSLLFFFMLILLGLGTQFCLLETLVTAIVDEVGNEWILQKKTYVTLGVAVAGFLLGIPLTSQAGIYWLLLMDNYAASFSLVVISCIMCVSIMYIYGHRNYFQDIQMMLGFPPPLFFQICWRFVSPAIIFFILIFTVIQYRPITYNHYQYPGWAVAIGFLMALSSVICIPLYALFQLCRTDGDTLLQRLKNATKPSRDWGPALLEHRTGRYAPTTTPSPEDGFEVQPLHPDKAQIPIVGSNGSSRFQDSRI
The experiment in a line: Glycine uptake inhibition assay (mGlyT-1b). Type of test: cell-based. To be noted: [3H]-glycine uptake, Flp-in-CHO cells transfected with mGlyT-1b cDNA. The protocol: DMEM complete medium: Nutrient mixture F-12 (Gibco Life-technologies), fetal bovine serum (FBS) 5%, (Gibco life technologies), Penicillin/Streptomycin 1% (Gibco life technologies), Hygromycin 0.6 mg/ml (Gibco life technologies), Glutamine 1 mM Gibco life technologies).
Uptake buffer (UB): 150 mM NaCl, 10 mM Hepes-Tris, pH 7.4, 1 mM CaCl2, 2.5 mM KCl, 2.5 mM MgSO4, 10 mM (+) D-glucose. Flp-in™-CHO (Invitrogen Cat n° R758-07)cells stably transfected with mGlyT1b cDNA.
Glycine uptake inhibition assay (mGlyT-1b)
On day 1 mammalian cells, (Flp-in™-CHO), transfected with mGlyT-1b cDNA, were plated at the density of 40,000 cells/well in complete F-12 medium, without hygromycin in 96-well culture plates. On day 2, the medium was aspirated and the cells were washed twice with uptake buffer (UB). The cells were then incubated for 20 min at 22° C. with either (i) no potential competitor, (ii) 10 mM non-radioactive glycine, (iii) a concentration of a potential inhibitor. A range of concentrations of the potential inhibitor was used to generate data for calculating the concentration of inhibitor resulting in 50% of the effect (e.g. IC50, the concentration of the competitor inhibiting glycine uptake of 50%). A solution was then immediately added containing [^3H]-glycine 60 nM (11-16 Ci/mmol) and 25 μM non-radioactive glycine. The plates were incubated with gentle shaking and the reaction was stopped by aspiration of the mixture and washing (three times) with ice-cold UB. The cells were lysed with scintillation liquid, shaken 3 hours and the radioactivity in the cells was counted using a scintillation counter.
`CC(C)Oc1ccc(S(C)(=O)=O)cc1C(=O)N1CCc2ccc(Cl)cc2C1` [Example 1.25, (7-Chloro-3,4-dihydro-1H-isoquinolin-2-yl)-(2-isopropoxy-5-methanesulfonyl-phenyl)-methanone] gave a half-inhibitory concentration (IC50) of 215 nM. That is a sub-micromolar value.

In the case of `CC(C)Sc1ccc(S(C)(=O)=O)cc1C(=O)N1CCc2cc(Cl)ccc2C1` [Example 1.57, (6-Chloro-3,4-dihydro-1H-isoquinolin-2-yl)-(2-isopropylsulfanyl-5-methanesulfonyl-phenyl)-methanone], the IC50 was determined as 160 nM.

The molecule `CC(C)Oc1ccc(S(C)(=O)=O)cc1C(=O)N1CCc2cc(C(F)(F)F)ccc2C1` [Example 1.12, (2-Isopropoxy-5-methanesulfonyl-phenyl)-(6-trifluoromethyl-3,4-dihydro-1H-isoquinolin-2-yl)-methanone] registered an IC50 of 46 nM. Compared with the last molecule, the IC50 is about 3.5-fold lower.

In the case of `COc1ccc2c(c1)CCN(C(=O)c1cc(S(C)(=O)=O)ccc1OC(C)C)C2` [Example 1.40, (2-Isopropoxy-5-methanesulfonyl-phenyl)-(6-methoxy-3,4-dihydro-1H-isoquinolin-2-yl)-methanone], the 50% inhibitory concentration (IC50) was 481 nM.

`C[C@H](Oc1ccc(S(C)(=O)=O)cc1C(=O)N1CCc2cc(Cl)ccc2C1)C(F)(F)F` [Example 1.18, (6-Chloro-3,4-dihydro-1H-isoquinolin-2-yl)-[5-methanesulfonyl-2-((S)-2,2,2-trifluoro-1-methyl-ethoxy)-phenyl]-methanone] showed an IC50 of 157 nM.

With `CS(=O)(=O)c1ccc(N2CCOCC2)c(C(=O)N2CCc3cc(C(F)(F)F)ccc3C2)c1` [Example 1.13, (5-Methanesulfonyl-2-morpholin-4-yl-phenyl)-(6-trifluoromethyl-3,4-dihydro-1H-isoquinolin-2-yl)-methanone], the IC50 is 321 nM.

On to `C[C@H](Oc1ccc(S(C)(=O)=O)cc1C(=O)N1CCc2cc(C(F)(F)F)ccc2C1)C(F)(F)F` [Example 1.14, [5-Methanesulfonyl-2-((S)-2,2,2-trifluoro-1-methyl-ethoxy)-phenyl]-(6-trifluoromethyl-3,4-dihydro-1H-isoquinolin-2-yl)-methanone], for which half-maximal inhibition (IC50) was put at 175 nM. This IC50 lies about 1.8-fold lower than the previous one.

As for `CC(C)Oc1ccc(S(C)(=O)=O)cc1C(=O)N1CCc2cc(C#N)ccc2C1` [Example 1.20, 2-(2-Isopropoxy-5-methanesulfonyl-benzoyl)-1,2,3,4-tetrahydro-isoquinoline-6-carbonitrile], the IC50 worked out at 454 nM.

`CS(=O)(=O)c1ccc(-c2ccccc2)c(C(=O)N2CCc3cc(C(F)(F)F)ccc3C2)c1` [Example 1.15, (4-Methanesulfonyl-biphenyl-2-yl)-(6-trifluoromethyl-3,4-dihydro-1H-isoquinolin-2-yl)-methanone] returned an IC50 of 168 nM.

On to `CC(C)Oc1ccc(S(C)(=O)=O)cc1C(=O)N1CCc2cccc(Cl)c2C1` [Example 1.30, (8-Chloro-3,4-dihydro-1H-isoquinolin-2-yl)-(2-isopropoxy-5-methanesulfonyl-phenyl)-methanone], for which it took 344 nM to reach half-maximal inhibition (IC50).

Regarding `CC(C)Oc1ccc(S(C)(=O)=O)cc1C(=O)N1CCc2c(ccc3c4ccccc4n(C)c23)C1` [Example 1.47, (2-Isopropoxy-5-methanesulfonyl-phenyl)-(11-methyl-1,2,4,11-tetrahydro-pyrido[4,3-a]carbazol-3-yl)-methanone], the midpoint of inhibition, the IC50, lay at 159 nM.

The molecule `CC(C)Oc1ccc(S(C)(=O)=O)cc1C(=O)N1CCc2cc(Cl)ccc2C1` [Example 1.19, (6-Chloro-3,4-dihydro-1H-isoquinolin-2-yl)-(2-isopropoxy-5-methanesulfonyl-phenyl)-methanone] displayed an IC50 of 359 nM. Compared with the last molecule, the IC50 is about 2.3-fold higher.

For `CC(C)Oc1ccc(S(C)(=O)=O)cc1C(=O)N1CCc2ccc(Cl)c(Cl)c2C1` [Example 1.26, (7,8-Dichloro-3,4-dihydro-1H-isoquinolin-2-yl)-(2-isopropoxy-5-methanesulfonyl-phenyl)-methanone], inhibition was half-maximal at 163 nM (IC50).

Take `CS(=O)(=O)c1ccc(-c2ccccc2)c(C(=O)N2CCc3nc(C(F)(F)F)ccc3C2)c1` [Example 1.8, (4-Methanesulfonyl-biphenyl-2-yl)-(2-trifluoromethyl-7,8-dihydro-5H-[1,6]naphthyridin-6-yl)-methanone]: the IC50 worked out at 82 nM.

In turn, `Cc1c2c(c(C)c3c1OCO3)CN(C(=O)c1cc(S(C)(=O)=O)ccc1OC(C)C)CC2` [Example 1.53] had an IC50 of 483 nM.
